Assay results: patent US9562053B2, “Benzo-fused heterocyclic derivatives useful as agonists of GPR120” (Janssen Pharmaceutica NV, priority 2013, dated 2017)

Experiments:
C57bl/6J Mice [1] = assay: C57bl6 mouse OGTT; format: in vivo
Protocol: (§1) Male, C57bl/6J Mice were ordered in at 8 weeks of age from Jackson Labs. Individual mice weighed anywhere in the range of 25-30 grams on study day. The mice were fasted, with removal of food occurring at 7 am on the morning of the study. Animals were moved into the room at 10:00 am, to give them time to acclimate. Glucose (insulin syringes) was drawn up either the night before or the morning of the study. Glucose was dosed (IP) at 1.5 g/kg at 7.5 ml/kg (20% glucose straight TEKNOVA, 250 ml sterile bottle w/catalogue number G0525). Test compounds were kept spinning and were only drawn into the syringes prior to study commencement. Animals were bled via tail snip to determine basal glucose levels prior to dosing of treatments. An Ascensia BREEZE Blood Glucose Monitoring System by Bayer (using unique 10-test disks) was used for determining glucose levels. The bleeds started at approximately 12:45 pm and dosing started, at 1-minute intervals, immediately after. All groups were dosed 30 minutes prior to glucose administration at a dose volume of 10 ml/kg (the dose volume was calculated separately for each individual animal). Thirty minutes after the first dose animals were bled again for a second baseline, or T=0, and immediately dosed with glucose via an i.p. injection. The exact dose volume for glucose was also calculated separately for each individual animal. Glucose measurements were taken at −30 min prior to compound dose, at t=0 (immediately prior to glucose dose), and at 15, 30, 45, 60, 90 min post glucose dose.
(§2) Glucose values were entered into an Excel sheet and graphed in GraphPad Prism. The following were calculated from Prism: Change from −30 to 0 BSLN Glucose, Raw Glucose AUC −30 to 90 min, Delta Glucose AUC −30 to 90 min, Raw Glucose AUC 0 to 90 min, Delta Glucose AUC 0 to 90 min.
The assay design is the same as that described above for the C57bl6 mouse IPGTT. The difference is that glucose was dosed PO at 3 g/kg, 7.5 ml/kg of 40% glucose.

[2] = target: T1, short form of the GPR120 receptor (Homo sapiens, UniProt Q5NUL3); assay: Human GPR120 DiscoveRx PathHunter Beta-Arrestin Assay, Procedure β-arrestin B (5000 cells/well); format: cell-based
T1 construct: host or cells: PathHunter CHO-K1 GPR120S β-Arrestin Cell Line
T1 sequence (Q5NUL3 1-361): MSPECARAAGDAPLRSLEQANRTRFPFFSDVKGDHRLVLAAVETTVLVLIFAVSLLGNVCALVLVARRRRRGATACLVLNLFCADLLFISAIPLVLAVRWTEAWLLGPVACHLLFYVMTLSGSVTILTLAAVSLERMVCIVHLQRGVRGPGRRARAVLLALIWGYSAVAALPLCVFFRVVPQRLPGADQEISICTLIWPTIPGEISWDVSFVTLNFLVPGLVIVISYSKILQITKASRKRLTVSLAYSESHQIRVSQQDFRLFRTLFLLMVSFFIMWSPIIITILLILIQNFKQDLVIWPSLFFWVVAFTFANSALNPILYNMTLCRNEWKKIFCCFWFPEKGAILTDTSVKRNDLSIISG
Outline: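 PathHunter CHO-K1 cells expressing short-form GPR120 (NM_181745), seeded at 5000 cells/well, were exposed to compound for 90 min at 37 °C in HBSS/20 mM HEPES/0.1% BSA, pH 7.4. Dilutions ran 25–0.012 µM before addition to wells. β-arrestin recruitment was read by EFC β-gal luminescence, and EC50 was fitted to % activity versus positive control with Hill slope fixed at 1.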

C57bl/6J Mice [3] = assay: GPR120 C57bl6 Mouse IPGTT; format: in vivo
Protocol: as §1, §2

| SMILES | Dose Responses C57 OGTT (C57bl/6J Mice [1]; 3 mg/kg) | Dose Responses C57 OGTT (C57bl/6J Mice [1]; 10 mg/kg) | Dose Responses C57 OGTT (C57bl/6J Mice [1]; 30 mg/kg) | C57 OGTT result (C57bl/6J Mice [1]; 30 mg/kg, glucose PO 3 g/kg) | EC50 [2] | Dose Responses C57 IPGTT (C57bl/6J Mice [3]; 3 mg/kg) | Dose Responses C57 IPGTT (C57bl/6J Mice [3]; 10 mg/kg) | Dose Responses C57 IPGTT (C57bl/6J Mice [3]; 30 mg/kg) | Dose Responses C57 IPGTT (C57bl/6J Mice [3]; 1 mg/kg) |
| --- | --- | --- | --- | --- | --- | --- | --- | --- | --- |
| CCc1cc2cc(F)cc(COc3ccc(CCC(=O)O)c(C)c3C)c2o1 [Compound 3, 3-{4-[(2-Ethyl-5-fluoro-1-benzofuran-7-yl)methoxy]-2,3-dimethylphenyl}propanoic acid] | −15% | −24% | −35% | −35 |  |  |  |  |  |
| Cc1cc2cc(OC(F)(F)F)cc(COc3ccc(CCC(=O)O)c(C)c3C)c2o1 [Compound 36, 3-(2,3-Dimethyl-4-{[2-methyl-5-(trifluoromethoxy)-1-benzofuran-7-yl]methoxy}phenyl)propanoic acid] |  |  |  |  | 69 nM | −7% | −36% | −46% |  |
| CCc1cc2cc(Cl)cc(COc3ccc(CCC(=O)O)c(C)c3C)c2o1 [Compound 11, 3-{4-[(5-Chloro-2-ethyl-1-benzofuran-7-yl)methoxy]-2,3-dimethylphenyl}propanoic acid] | −30% | −38% | −43% |  | 94 nM |  |  |  |  |
| CCc1cc2cc(Cl)c(C)c(COc3ccc(CCC(=O)O)c(C)c3C)c2o1 [Compound 40, 3-{4-[(5-Chloro-2-ethyl-6-methyl-1-benzofuran-7-yl)methoxy]-2,3-dimethylphenyl}propanoic acid] |  |  |  |  |  | 13% | −34% |  | −28% |
| CCc1cc2ccc(OC(F)F)c(COc3ccc(CCC(=O)O)c(C)c3C)c2o1 [Compound 70, 3-(4-{[6-(Difluoromethoxy)-2-ethyl-1-benzofuran-7-yl]methoxy}-2,3-dimethylphenyl)propanoic acid] |  |  |  |  | 1290 nM |  |  |  |  |
| CCc1cc2cc(OC(F)(F)F)cc(COc3ccc(CCC(=O)O)c(C)c3C)c2o1 [Compound 12, 3-(4-{[2-Ethyl-5-(trifluoromethoxy)-1-benzofuran-7-yl]methoxy}-2,3-dimethylphenyl)propanoic acid] | 6% | −26% | −30% |  | 70 nM |  |  |  |  |
| CCc1cc2cc(Cl)cc(COc3ccc(CCC(=O)O)c4c3CCC4)c2o1 [Compound 54, 3-{7-[(5-Chloro-2-ethyl-1-benzofuran-7-yl)methoxy]-2,3-dihydro-1H-inden-4-yl}propanoic acid] |  |  |  |  | 150 nM |  |  |  |  |
| Cc1cc2cc(F)cc(COc3ccc(CCC(=O)O)c(C)c3C)c2o1 [Compound 2, 3-{4-[(5-Fluoro-2-methyl-1-benzofuran-7-yl)methoxy]-2,3-dimethylphenyl}propanoic acid] | −29% | −31% | −51% |  |  | −20% | −27% | −53% | −3% |
